Measured values as given in paper PMC6055880, “Virtual Fragment Screening Identification of a Quinoline‐5,8‐dicarboxylic Acid Derivative as a Selective JMJD3 Inhibitor” (Chemmedchem, 2018).

Experiments:
Assay type in all cases: biochemical
JMJD1A = target: T1, JMJD1A (Homo sapiens, UniProt Q9Y4C1); test: AlphaScreen JMJD1A demethylase inhibition (selectivity)
T1 construct: purchased BPS Bioscience (contract assay)
T1 sequence (Q9Y4C1 1-1321): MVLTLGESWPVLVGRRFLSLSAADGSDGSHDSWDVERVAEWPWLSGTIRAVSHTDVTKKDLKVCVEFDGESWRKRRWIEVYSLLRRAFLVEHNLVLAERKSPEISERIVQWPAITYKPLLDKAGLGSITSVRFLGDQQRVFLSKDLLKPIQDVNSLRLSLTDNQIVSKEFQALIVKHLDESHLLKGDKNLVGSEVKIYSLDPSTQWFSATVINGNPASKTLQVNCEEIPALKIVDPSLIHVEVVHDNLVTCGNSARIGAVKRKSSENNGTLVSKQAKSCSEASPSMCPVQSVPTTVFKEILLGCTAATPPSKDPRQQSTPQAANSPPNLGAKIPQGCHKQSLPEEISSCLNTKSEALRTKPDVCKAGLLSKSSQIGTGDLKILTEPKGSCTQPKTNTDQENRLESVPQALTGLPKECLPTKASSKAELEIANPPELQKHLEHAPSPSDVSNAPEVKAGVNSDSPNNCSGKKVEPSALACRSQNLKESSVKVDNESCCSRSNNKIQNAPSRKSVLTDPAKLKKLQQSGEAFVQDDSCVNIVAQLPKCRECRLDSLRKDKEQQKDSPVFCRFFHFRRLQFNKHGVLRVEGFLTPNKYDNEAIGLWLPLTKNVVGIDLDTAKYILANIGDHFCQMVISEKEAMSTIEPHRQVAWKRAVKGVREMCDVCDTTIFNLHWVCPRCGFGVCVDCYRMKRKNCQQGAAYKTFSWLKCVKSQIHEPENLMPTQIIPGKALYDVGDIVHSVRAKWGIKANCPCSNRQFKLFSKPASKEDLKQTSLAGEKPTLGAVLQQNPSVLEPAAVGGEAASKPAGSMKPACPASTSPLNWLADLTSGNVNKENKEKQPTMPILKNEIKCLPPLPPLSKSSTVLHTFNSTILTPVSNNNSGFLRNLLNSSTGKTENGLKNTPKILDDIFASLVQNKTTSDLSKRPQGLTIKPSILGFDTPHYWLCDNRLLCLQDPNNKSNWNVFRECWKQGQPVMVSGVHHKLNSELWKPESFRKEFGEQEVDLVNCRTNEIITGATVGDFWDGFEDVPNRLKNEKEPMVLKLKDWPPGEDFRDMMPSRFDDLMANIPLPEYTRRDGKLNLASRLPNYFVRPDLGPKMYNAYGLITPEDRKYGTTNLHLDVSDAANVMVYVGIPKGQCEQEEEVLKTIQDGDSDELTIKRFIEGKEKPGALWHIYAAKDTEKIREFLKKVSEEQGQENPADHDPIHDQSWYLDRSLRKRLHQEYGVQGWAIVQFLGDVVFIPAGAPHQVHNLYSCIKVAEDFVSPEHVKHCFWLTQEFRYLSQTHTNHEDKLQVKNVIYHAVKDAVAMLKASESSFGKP
From the text: (§1) Compounds 4 and 5 also appreciably decrease enzyme activity by 65 % and 60 %, respectively. […] We proceeded to investigate the inhibitory activity of 3 further by evaluation of its IC50 value against JMJD3. The results highlighted a low micromolar activity of compound 3 against JMJD3 (Table 1). […] Similar outcomes were obtained for 3 versus JMJD2C and JMJD2D (Table 1). […] Relative to JMJD1A and FBXL11, we found a decrease in enzymatic activity (Table 1) toward Jarid1A and Jarid1B of 33 % and 26 % by 3.
(§2) 2,4-pyridine dicarboxylic acid (2,4-PC) is purchased from Acros Organics (New Jersey, […]
(§3) GSK J1 is purchased from Sigma Aldrich (Italy, Catalog number SML0709). […]
(§4) After enzymatic reactions, 5 µl of anti-Mouse Acceptor beads (PerkinElmer, diluted 1:500 with 1x detection buffer) or 5 µl of anti-Rabbit Acceptor beads (PerkinElmer, diluted 1:500 with 1x detection buffer) and 5 µl of Primary antibody (BPS, diluted 1:200 with 1x detection buffer) were added to the reaction mix. […] In 30 minutes, the samples were measured in AlphaScreen microplate reader (EnSpire Alpha 2390 Multilabel Reader, PerkinElmer). […]
(§5) Enzyme activity assays were performed in duplicates at each concentration. The A-screen intensity data were analyzed and compared. […] The IC 50 value was determined by the concentration causing a half -maximal percent activity.

Jarid1A = target: T2, Jarid1A (Homo sapiens, UniProt P29375); test: AlphaScreen Jarid1A demethylase inhibition (selectivity)
T2 construct: purchased BPS Bioscience (contract assay)
T2 sequence (P29375 whole entry): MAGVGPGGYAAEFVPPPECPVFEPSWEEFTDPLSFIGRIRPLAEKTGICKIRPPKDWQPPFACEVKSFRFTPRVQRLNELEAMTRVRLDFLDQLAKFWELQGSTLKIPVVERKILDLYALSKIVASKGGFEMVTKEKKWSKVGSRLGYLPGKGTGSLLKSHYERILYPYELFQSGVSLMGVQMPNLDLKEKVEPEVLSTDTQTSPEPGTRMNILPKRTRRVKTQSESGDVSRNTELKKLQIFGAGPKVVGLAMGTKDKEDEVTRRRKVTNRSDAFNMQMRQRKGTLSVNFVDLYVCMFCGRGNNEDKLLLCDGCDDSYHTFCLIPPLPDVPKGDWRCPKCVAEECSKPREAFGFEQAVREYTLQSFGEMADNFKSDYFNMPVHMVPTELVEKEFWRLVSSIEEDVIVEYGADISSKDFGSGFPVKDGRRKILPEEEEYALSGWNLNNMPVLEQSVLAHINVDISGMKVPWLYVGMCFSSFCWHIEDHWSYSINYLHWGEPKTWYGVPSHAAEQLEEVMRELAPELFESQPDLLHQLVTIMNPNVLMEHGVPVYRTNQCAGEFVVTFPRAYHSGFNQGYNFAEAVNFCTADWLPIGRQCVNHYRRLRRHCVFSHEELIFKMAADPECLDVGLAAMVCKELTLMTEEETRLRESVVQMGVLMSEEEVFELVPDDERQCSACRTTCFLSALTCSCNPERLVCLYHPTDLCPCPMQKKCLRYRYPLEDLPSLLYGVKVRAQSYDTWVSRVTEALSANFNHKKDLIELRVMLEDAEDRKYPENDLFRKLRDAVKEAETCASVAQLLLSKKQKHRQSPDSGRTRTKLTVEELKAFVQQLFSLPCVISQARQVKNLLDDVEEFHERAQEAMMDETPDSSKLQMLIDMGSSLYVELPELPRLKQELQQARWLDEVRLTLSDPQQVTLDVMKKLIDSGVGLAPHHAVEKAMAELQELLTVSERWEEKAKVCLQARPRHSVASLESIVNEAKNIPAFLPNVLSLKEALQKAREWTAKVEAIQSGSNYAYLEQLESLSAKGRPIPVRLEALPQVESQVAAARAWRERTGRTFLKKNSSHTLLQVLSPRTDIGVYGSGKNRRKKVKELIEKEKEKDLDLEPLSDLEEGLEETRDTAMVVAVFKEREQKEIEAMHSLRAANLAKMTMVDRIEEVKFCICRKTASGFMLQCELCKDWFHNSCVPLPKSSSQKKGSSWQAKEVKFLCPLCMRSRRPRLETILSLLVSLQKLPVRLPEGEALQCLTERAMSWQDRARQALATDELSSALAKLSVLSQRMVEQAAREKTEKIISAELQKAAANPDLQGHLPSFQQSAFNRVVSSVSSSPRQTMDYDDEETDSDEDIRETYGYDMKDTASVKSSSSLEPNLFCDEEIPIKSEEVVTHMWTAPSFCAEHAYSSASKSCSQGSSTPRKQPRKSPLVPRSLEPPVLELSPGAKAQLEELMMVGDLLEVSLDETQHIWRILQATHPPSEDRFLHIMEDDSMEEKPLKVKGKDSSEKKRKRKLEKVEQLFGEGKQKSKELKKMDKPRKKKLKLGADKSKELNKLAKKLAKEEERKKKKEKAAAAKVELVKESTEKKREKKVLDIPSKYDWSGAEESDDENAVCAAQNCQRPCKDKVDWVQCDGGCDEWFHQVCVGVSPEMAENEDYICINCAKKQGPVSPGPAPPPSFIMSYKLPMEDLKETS
From the text: as §1, §2, §3, §4, §5

FBXL11 = target: T3, FBXL11 (Homo sapiens, UniProt Q9Y2K7); test: AlphaScreen FBXL11 demethylase inhibition (selectivity)
T3 construct: purchased BPS Bioscience (contract assay)
T3 sequence (Q9Y2K7 1-1162): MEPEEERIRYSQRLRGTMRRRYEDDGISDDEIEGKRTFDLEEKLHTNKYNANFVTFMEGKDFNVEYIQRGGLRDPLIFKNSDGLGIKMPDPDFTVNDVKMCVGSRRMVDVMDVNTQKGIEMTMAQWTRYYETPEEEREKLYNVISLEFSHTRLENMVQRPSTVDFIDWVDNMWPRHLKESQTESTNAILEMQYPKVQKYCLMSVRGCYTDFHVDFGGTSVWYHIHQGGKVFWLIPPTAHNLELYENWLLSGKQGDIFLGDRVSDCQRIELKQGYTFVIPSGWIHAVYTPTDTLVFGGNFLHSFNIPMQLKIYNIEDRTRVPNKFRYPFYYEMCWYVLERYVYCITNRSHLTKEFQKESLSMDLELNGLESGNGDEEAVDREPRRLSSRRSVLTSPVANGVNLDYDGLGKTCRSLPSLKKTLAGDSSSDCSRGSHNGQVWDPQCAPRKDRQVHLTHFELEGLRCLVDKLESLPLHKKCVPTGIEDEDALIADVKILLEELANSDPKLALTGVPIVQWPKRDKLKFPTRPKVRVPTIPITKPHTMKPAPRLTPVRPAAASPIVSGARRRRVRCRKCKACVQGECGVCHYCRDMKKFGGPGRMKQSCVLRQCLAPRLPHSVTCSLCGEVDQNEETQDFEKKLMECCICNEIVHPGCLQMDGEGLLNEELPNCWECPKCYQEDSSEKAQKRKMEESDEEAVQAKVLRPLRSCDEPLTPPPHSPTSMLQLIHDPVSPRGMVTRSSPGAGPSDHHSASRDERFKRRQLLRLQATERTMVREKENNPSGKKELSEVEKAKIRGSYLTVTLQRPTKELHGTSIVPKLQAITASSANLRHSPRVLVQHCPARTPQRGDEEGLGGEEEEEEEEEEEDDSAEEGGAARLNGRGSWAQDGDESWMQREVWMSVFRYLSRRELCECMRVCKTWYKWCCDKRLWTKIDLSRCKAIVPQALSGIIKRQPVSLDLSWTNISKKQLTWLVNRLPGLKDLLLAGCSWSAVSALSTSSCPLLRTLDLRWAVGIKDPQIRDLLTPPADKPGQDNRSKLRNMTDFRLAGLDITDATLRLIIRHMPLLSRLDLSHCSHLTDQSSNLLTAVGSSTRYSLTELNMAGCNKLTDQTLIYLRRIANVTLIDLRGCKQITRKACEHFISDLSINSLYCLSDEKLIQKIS
From the text: as §1, §2, §3, §4, §5

UTX = target: T4, UTX (Homo sapiens, UniProt O15550); test: AlphaScreen UTX demethylase inhibition (selectivity); settings: at 10 μM; NI = no significant inhibition at 10 μM
T4 construct: purchased BPS Bioscience (contract assay)
From the text: as §1, §2, §3, §4, §5

JMJD3 = JMJD3 (Homo sapiens, UniProt O15054); test: AlphaScreen JMJD3 demethylase inhibition; settings: for inhibition at 25 µM: compound at 25 μM
JMJD3, sequence (O15054 whole entry): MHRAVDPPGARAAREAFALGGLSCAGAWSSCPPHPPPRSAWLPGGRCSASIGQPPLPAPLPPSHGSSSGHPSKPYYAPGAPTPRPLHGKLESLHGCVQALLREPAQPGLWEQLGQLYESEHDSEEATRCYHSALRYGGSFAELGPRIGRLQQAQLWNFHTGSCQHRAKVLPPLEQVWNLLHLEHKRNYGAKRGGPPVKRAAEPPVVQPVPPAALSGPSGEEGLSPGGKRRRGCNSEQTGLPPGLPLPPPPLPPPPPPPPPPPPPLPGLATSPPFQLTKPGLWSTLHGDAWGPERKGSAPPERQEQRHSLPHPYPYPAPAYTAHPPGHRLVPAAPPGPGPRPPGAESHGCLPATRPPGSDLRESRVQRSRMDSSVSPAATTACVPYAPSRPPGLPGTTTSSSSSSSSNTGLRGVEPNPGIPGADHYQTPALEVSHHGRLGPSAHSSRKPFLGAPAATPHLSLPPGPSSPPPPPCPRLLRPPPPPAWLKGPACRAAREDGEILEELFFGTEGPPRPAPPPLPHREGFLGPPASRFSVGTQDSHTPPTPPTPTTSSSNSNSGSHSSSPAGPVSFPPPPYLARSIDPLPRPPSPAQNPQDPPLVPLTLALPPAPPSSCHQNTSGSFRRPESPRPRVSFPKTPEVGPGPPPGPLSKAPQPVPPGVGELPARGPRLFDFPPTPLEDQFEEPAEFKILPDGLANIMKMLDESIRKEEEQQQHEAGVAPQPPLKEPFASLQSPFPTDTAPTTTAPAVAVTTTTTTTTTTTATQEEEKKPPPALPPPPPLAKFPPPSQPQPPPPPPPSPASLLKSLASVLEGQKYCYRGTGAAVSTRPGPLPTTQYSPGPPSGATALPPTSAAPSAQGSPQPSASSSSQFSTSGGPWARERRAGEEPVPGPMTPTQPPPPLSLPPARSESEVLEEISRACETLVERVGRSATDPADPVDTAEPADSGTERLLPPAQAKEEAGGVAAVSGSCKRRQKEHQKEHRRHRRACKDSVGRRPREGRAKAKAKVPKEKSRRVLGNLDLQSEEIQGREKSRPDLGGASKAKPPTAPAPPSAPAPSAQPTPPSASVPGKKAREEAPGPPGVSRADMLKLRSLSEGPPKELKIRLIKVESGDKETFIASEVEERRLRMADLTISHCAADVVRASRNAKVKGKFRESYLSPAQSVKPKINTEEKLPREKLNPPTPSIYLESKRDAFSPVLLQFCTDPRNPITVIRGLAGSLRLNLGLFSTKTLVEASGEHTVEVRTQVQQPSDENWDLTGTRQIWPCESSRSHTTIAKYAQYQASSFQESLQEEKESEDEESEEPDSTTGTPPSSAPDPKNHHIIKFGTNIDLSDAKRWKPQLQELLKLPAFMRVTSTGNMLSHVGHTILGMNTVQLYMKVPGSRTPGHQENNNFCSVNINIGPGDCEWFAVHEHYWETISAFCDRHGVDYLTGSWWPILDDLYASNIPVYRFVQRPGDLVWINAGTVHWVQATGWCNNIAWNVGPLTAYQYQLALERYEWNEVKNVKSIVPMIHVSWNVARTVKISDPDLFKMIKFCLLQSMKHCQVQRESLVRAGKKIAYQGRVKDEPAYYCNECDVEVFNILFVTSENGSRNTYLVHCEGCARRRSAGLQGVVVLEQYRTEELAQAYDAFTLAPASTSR
From the text: as §1, §2
GSK J1 is purchased from Sigma Aldrich (Italy, Catalog number SML0709).
JIB-04 is purchased from Sigma-Aldrich (St. Louis, MO, Catalog number SML0808).
AlphaLISA anti-mIgG acceptor beads from PerkinElmer (Santa Clara, CA, Catalog number […]
AlphaLISA anti-rIgG acceptor beads from PerkinElmer (Santa Clara, CA, Catalog number […]
AlphaScreen Streptavidin-conjaugated donor beads from PerkinElmer (Santa Clara, CA, […]
Primary antibody 2 from BPS (Catalog number 52140B1).
Primary antibody 5 from BPS (Catalog number 52140E).
Primary antibody 6 from BPS (Catalog number 52140F).
Primary antibody 16-2 from BPS (Catalog number 52140P2).
Primary antibody 17-3 from BPS(Catalog number 52140Q3). […]
Biotinylated histone H3 peptide substrate (UTX and JMJD3) (BPS and Anaspec). […]
JMJD3 Assay Buffer from BPS. […]
4x Detection buffer from BPS (Catalog number 52301).
All of the enzymatic reactions were conducted at room temperature for 60 minutes in a 10 µl mixture containing assay buffer, histone H3 peptide substrate, demethylase enzyme, and the test compound. These 10 µl reactions were carried out in wells of 384-well Optiplate (PerkinElmer). The serial dilution of the compounds was first performed in 100% DMSO with the highest concentration at 1 mM. Each intermediate compound dilution (in 100% DMSO) will then get directly diluted 30x fold into assay buffer for 3.3x conc (DMSO). Enzyme only and blank only wells have a final DMSO concentration of 1%. From this intermediate step, 3 µl of compound is added to 4 µl of demethylase enzyme dilution is incubated for 30 minutes at room temperature. After this incubation, 3 µl of peptide substrate is added. The final DMSO concentration is 1%.
After enzymatic reactions, 5 µl of anti-Mouse Acceptor beads (PerkinElmer, diluted 1:500 with 1x detection buffer) or 5 µl of anti-Rabbit Acceptor beads (PerkinElmer, diluted 1:500 with 1x detection buffer) and 5 µl of Primary antibody (BPS, diluted 1:200 with 1x detection buffer) were added to the reaction mix. After brief shaking, plate was incubated for 30 minutes. Finally, 10 µl of AlphaScreen Streptavidin-conjugated donor beads (Perkin, diluted 1:125 with 1x detection buffer) were added. In 30 minutes, the samples were measured in AlphaScreen microplate reader (EnSpire Alpha 2390 Multilabel Reader, PerkinElmer).
For JMJD3, Donor and acceptor beads and primary antibody were incubated for 1 h,[9] for the remaining enzymes for 30’.
5 µL of AlphaScreen assay buffer containing EDTA (30 mM) and NaCl (800 mM) to stop the […]
Except for JMJD3, the experiments were performed by BPS Bioscience.
Enzyme activity assays were performed in duplicates at each concentration. The A-screen intensity data were analyzed and compared. In the absence of the compound, the intensity in each data set was defined as 100% activity. In the absence of enzyme, the intensity in each data set was defined as 0% activity. The values of % activity versus a series of compound concentrations were then plotted using non-linear regression analysis of Sigmoidal dose-response curve generated with the equation Y=B+(T-B)/1+10((LogEC50-X)×Hill Slope), where Y=percent activity, B=minimum percent activity, T=maximum percent activity, X= l ogarithm of compound and Hill Slope=slope factor or Hill coefficient. The IC 50 value was determined by the concentration causing a half -maximal percent activity.

Jarid1B = target: T5, Jarid1B (Homo sapiens, UniProt Q9UGL1); test: AlphaScreen Jarid1B demethylase inhibition (selectivity)
T5 construct: purchased BPS Bioscience (contract assay)
T5 sequence (Q9UGL1 whole entry): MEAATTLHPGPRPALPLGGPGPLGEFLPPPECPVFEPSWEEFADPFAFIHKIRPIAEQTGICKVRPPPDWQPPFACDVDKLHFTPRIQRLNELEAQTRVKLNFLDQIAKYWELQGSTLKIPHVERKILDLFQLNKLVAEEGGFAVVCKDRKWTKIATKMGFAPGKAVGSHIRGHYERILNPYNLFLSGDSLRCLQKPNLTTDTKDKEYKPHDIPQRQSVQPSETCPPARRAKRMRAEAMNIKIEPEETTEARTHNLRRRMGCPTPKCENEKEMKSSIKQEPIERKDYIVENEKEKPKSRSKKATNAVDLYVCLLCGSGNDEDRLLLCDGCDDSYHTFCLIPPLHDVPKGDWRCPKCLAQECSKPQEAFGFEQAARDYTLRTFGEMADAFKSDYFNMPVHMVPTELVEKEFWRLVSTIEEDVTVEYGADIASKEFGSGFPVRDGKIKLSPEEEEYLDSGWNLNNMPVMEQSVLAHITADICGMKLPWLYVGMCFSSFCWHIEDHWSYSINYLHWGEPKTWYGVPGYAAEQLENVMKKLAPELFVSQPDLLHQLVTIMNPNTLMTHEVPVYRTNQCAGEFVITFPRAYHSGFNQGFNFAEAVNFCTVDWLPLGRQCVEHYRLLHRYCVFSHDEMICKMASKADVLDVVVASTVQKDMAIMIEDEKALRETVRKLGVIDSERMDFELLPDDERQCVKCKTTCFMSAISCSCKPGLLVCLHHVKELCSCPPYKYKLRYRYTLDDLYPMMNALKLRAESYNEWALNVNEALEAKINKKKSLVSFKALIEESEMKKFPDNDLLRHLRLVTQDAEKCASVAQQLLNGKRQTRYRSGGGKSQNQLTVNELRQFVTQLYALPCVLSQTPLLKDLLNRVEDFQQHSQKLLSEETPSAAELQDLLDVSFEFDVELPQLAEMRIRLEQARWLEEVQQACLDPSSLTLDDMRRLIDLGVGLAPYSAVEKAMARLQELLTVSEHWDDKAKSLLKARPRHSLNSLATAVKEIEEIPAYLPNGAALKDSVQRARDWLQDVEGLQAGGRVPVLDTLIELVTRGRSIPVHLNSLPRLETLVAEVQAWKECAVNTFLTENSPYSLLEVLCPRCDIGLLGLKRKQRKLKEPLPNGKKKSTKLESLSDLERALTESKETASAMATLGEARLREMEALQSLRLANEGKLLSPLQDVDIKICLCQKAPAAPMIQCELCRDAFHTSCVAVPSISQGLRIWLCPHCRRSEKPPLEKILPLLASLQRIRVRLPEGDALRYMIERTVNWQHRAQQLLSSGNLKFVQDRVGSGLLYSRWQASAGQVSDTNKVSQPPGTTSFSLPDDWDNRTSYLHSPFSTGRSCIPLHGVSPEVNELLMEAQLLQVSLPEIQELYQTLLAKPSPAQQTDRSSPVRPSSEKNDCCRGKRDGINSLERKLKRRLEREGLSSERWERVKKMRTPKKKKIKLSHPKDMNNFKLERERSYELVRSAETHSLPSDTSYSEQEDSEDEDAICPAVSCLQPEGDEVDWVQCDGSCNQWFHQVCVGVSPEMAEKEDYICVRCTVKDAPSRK
From the text: as §1, §2, §3, §4, §5

COc1ncc(-c2cnc3c(C(=O)O)ccc(C(=O)O)c3c2)c(OC)n1 [Compound 3, 3‐(2,4‐dimethoxypyrimidin‐5‐yl)quinoline‐5,8‐dicarboxylic acid]
inhibition at 10 µM (JMJD1A; at 10 μM, read-out: Percent Inhibition JMJD1A): 12% | IC50 (JMJD1A; footnote b of Table 1): > 10 µM | inhibition at 10 µM (Jarid1A; at 10 μM, read-out: Percent Inhibition Jarid1A): 33% | IC50 (Jarid1A; footnote b of Table 1): > 10 µM | inhibition at 10 µM (FBXL11; at 10 μM, read-out: Percent Inhibition FBXL11): 15% | IC50 (FBXL11; footnote b of Table 1): > 10 µM | Percent Inhibition UTX (UTX): no significant inhibition | inhibition at 25 µM (JMJD3): 90% | IC50 (JMJD3; read-out: IC50±SEM JMJD3): 1.52 ± 0.5 µM | inhibition at 10 µM (Jarid1B; at 10 μM, read-out: Percent Inhibition Jarid1B): 26% | IC50 (Jarid1B; footnote b of Table 1): > 10 µM

NS(=O)(=O)c1ccc(-c2cnc3c(C(=O)O)ccc(C(=O)O)c3c2)cc1 [Compound 4]
inhibition at 25 µM (JMJD3): 65%

O=C(O)c1ccc(-c2cnc3c(C(=O)O)ccc(C(=O)O)c3c2)s1 [Compound 5]
inhibition at 25 µM (JMJD3): 60%

COc1cc(-c2cnc3c(C(=O)O)ccc(C(=O)O)c3c2)c(OC)nn1 [Compound 6]
inhibition at 25 µM (JMJD3): ~25%

COc1cc(-c2cnc3c(C(=O)O)ccc(C(=O)O)c3c2)ccc1F [Compound 7]
inhibition at 25 µM (JMJD3): ~12%
